Drawing on BindingDB's records for doi:10.1021/ml400168h (Merck Research Laboratories, 2013), this text covers IC50 for 19 molecules.

A value given as a limit tells only on which side of the number the result lay.

The target in this test is Sterol O-acyltransferase 1 / ACAT1 (Homo sapiens) (UniProt P35610). The test can be described thus: Inhibition of human ACAT1.
Sterol O-acyltransferase 1 / ACAT1 (Homo sapiens), sequence (P35610 whole entry, looked up): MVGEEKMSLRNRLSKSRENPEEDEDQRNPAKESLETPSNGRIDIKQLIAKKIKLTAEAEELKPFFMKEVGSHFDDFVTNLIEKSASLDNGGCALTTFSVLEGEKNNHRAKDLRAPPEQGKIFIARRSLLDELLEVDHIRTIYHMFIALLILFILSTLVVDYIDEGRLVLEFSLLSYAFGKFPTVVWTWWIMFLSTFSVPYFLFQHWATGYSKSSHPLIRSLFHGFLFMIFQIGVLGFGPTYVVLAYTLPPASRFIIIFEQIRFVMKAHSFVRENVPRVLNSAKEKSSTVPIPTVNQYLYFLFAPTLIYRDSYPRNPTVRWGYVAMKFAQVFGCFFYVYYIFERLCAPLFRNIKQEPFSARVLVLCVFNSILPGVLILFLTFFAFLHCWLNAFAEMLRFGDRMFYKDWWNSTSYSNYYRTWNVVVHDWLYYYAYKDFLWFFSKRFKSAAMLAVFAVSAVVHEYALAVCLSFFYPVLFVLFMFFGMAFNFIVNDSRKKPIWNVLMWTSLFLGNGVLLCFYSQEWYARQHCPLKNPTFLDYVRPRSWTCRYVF
The IC50 is the midpoint of a concentration-inhibition curve. High values mean a need for much substance, low ones inhibition by little substance. Take `O=C(O)[C@H]1CC[C@H](Oc2ccc(-c3ccc(-c4nc5ccc(F)cc5[nH]4)cn3)cn2)CC1`: the IC50 was above 10 µM.

With `O=C(O)[C@H]1CC[C@@H](Oc2ccc(-c3ccc(-c4nc5ccc(F)cc5[nH]4)cn3)cn2)CC1`, the IC50 was above 10 µM.

In turn, `O=C(O)[C@H]1CC[C@H](Oc2ccc(-c3ccc(-c4nc5ccccc5[nH]4)cn3)cn2)CC1` gave an IC50 of 6.07 µM.

As to `O=C(O)[C@H]1CC[C@@H](Oc2ccc(-c3ccc(-c4nc5ccccc5[nH]4)cn3)cn2)CC1`, it took 8.08 µM to reach half-maximal inhibition (IC50).

Regarding `COc1ccc2[nH]c(-c3ccc(-c4ccc(O[C@H]5CC[C@H](C(=O)O)CC5)nc4)nc3)nc2n1`, half-maximal inhibition (IC50) required 4.9 µM.

In the case of `COc1ccc2[nH]c(-c3ccc(-c4ccc(O[C@H]5CC[C@@H](C(=O)O)CC5)nc4)nc3)nc2n1`, it took 2.48 µM to reach half-maximal inhibition (IC50).

As to `CS(=O)(=O)c1ccc2nc(-c3ccc(-c4ccc(O[C@H]5CC[C@H](C(=O)O)CC5)nc4)nc3)[nH]c2c1`, the IC50 was above 10 µM.

`CS(=O)(=O)c1ccc2nc(-c3ccc(-c4ccc(O[C@H]5CC[C@@H](C(=O)O)CC5)nc4)nc3)[nH]c2c1` registered an IC50 above 10 µM.

For the molecule `O=C(O)[C@H]1CC[C@@H](Oc2ccc(-c3ccc(-c4nc5ccc(OC(F)(F)F)cc5[nH]4)cn3)cn2)CC1`, the IC50 was found to be 0.772 µM.

On to `N#Cc1ccc2nc(-c3ccc(-c4ccc(O[C@H]5CC[C@H](C(=O)O)CC5)nc4)nc3)[nH]c2c1`, for which the IC50 was above 10 µM.

As for `N#Cc1ccc2nc(-c3ccc(-c4ccc(O[C@H]5CC[C@@H](C(=O)O)CC5)nc4)nc3)[nH]c2c1`, the IC50 was above 10 µM.

In turn, `O=C(O)[C@H]1CC[C@H](Oc2ccc(-c3ccc(-c4nc5cc(F)c(F)cc5[nH]4)cn3)cn2)CC1` had an IC50 of 8.44 µM.

The molecule `O=C(O)[C@H]1CC[C@@H](Oc2ccc(-c3ccc(-c4nc5cc(F)c(F)cc5[nH]4)cn3)cn2)CC1` returned a half-inhibitory concentration (IC50) above 10 µM.

As to `O=C(O)C[C@H]1CC[C@H](c2ccc(-c3ccc(-c4nc5ccc(Cl)cc5[nH]4)cn3)cc2)CC1`, the IC50 was determined as 0.167 µM.

In the case of `O=C(O)C[C@H]1CC[C@H](c2ccc(-c3ccc(-c4nc5ccc(C(F)(F)F)cc5[nH]4)cn3)cc2)CC1`, 0.293 µM corresponded to half-maximal inhibition (IC50).

In the case of `O=C(O)[C@H]1CC[C@H](Oc2ccc(-c3ccc(-c4nc5ccc(Cl)cc5[nH]4)cn3)cn2)CC1`, the IC50 was found to be 1.34 µM.

In turn, `O=C(O)[C@H]1CC[C@@H](Oc2ccc(-c3ccc(-c4nc5ccc(Cl)cc5[nH]4)cn3)cn2)CC1` gave an IC50 of 3.53 µM.

Turning to `O=C(O)[C@H]1CC[C@H](Oc2ccc(-c3ccc(-c4nc5ccc(C(F)(F)F)cc5[nH]4)cn3)cn2)CC1`, the IC50 turned out to be 1.23 µM.

In turn, `O=C(O)[C@H]1CC[C@@H](Oc2ccc(-c3ccc(-c4nc5ccc(C(F)(F)F)cc5[nH]4)cn3)cn2)CC1` yielded an IC50 of 1.09 µM.
